Here are results for 6 molecules from paper PMC10668980, “Molecular Cloning, Heterologous Expression, Purification, and Evaluation of Protein–Ligand Interactions of CYP51 of Candida krusei Azole-Resistant Fungal Strain” (Biomedicines, 2023).

Where two headings read alike, the source gives them in different places.

Assay [1] has as its target T1, C. krusei CYP51 (C.krCYP51) (Pichia kudriavzevii, UniProt A9YUC7, K136R). Briefly: biochemical.
Method: (§1) Dissociation constants of complexes of CYP51 with the substrate, inhibitors, and potential ligands were determined by the spectrophotometric titration method in [37]. Briefly, a protein solution (final concentration of 1 μM) in buffer (50 mM potassium phosphate buffer, pH 7.4) was placed in two cuvettes (1 × 1 cm), and a baseline was recorded on a spectrophotometer at a wavelength of 350–500 nm. The spectra were detected with a Cary 5000 UV-VIS-NIR spectrophotometer. A ligand solution was added to the experimental cuvette and an equal volume of solvent was added to the control cuvette; the change in optical absorption was recorded in the same wavelength range. The solutions in the cuvettes were thoroughly mixed by pipetting after adding the ligand solution or solvent and incubated for 1–2 min. The maximum and minimum absorption values were registered.
(§2) The dissociation constant of the enzyme–ligand complex (Kd) was used as a parameter characterizing the strength of ligand binding in the active site.
Assay [2] has as its target T1, C. krusei CYP51 (C.krCYP51). The following applies: for ΔAmax: absorbance change at ligand saturation; for Type of Spectral Response: difference spectrum 350–500 nm.
Method: as §1, §2

T1 sequence (A9YUC7 2-528 K136R): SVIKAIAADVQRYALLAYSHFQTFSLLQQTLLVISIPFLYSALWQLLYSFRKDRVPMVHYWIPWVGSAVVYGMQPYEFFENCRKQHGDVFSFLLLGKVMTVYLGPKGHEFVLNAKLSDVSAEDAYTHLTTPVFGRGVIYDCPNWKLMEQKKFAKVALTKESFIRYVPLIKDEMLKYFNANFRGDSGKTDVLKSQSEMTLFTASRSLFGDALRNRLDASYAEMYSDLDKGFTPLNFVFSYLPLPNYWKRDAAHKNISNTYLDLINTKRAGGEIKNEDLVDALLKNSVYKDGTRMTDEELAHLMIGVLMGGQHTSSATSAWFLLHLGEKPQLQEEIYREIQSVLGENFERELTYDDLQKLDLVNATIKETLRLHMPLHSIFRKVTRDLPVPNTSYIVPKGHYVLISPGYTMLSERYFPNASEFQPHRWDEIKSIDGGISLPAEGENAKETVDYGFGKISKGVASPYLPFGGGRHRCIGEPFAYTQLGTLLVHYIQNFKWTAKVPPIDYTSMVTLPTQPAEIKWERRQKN

Regarding `CC(=O)O[C@@]12C=C[C@]3(C[C@H]1[N+](=O)[O-])C1CCc4cc(O)ccc4C1CC[C@@]32C` (stereo partly drawn) [73c, 14,17-etheno-3-hydroxy-16α-nitroestra-1,3,5(10)-trien-17β-yl acetate], the Kd in assay [1] worked out at 10700 nM. For the same molecule, in assay [2] (steroid derivatives), the ΔAmax stood at 0.0069 and the “Type of Spectral Response” value is “type I”.
Take `C[C@@H](c1ncncc1F)[C@](O)(Cn1cncn1)c1ccc(F)cc1F` [Voriconazole]: binding in assay [1] was characterised by a dissociation constant (Kd) of 10 nM. Further, in assay [2] (azoles), the ΔAmax amounted to 0.023 and the “Type of Spectral Response” value is “type II”.
Turning to `COC1C(OC2CCC3(C)C(C(O)CC4(O)C3CCC3(C)C(C(C)CCC(OC5OC(CO)C(O)C5O)C(C)C)CC(O)C34)C2O)OCC(O)C1O` (stereo not drawn) [Ch-4, granulatoside A], binding in assay [1] was characterised by a dissociation constant (Kd) of 6950 nM. Besides, in assay [2] (steroid derivatives), the ΔAmax is 0.0099 and the “Type of Spectral Response” value was “type I”.
For `c1ccc(-c2ccc(C(c3ccccc3)n3ccnc3)cc2)cc1` (stereo not drawn) [Bifonazole], in assay [1], the Kd turned out to be 3 nM. Moreover, in assay [2] (azoles), the ΔAmax is reported as 0.050 and the “Type of Spectral Response” value is given as “type II”.
Take `CC(C)=CCC[C@@H](C)[C@H]1CC[C@@]2(C)C3=C(CC[C@]12C)[C@@]1(C)CC[C@H](O)C(C)(C)[C@@H]1CC3` [Lanosterol]: the Kd in assay [1] was found to be 2820 nM. Moreover, in assay [2] (steroid derivatives), the ΔAmax is reported as 0.031 and the “Type of Spectral Response” value was “type I”.
The like results for `CC(C)C(C=C[C@](C)(O)[C@H]1CC[C@H]2[C@@H]3CC=C4C[C@@H](O)CC[C@]4(C)[C@H]3CC[C@@]21C)=NO` [compound 99, 3β,20-dihydroxy-24-hydroxyiminocholest-5,22-diene] were, in that order, 1020 nM, 0.0047 and “type I”.
